Laboratory results reported in US6472418B1, “Non-peptide NK1 receptors antagonists” (Warner-Lambert Company, priority 1998, dated 2002).

These compounds were tested against T1, Human NK1 Receptor (Homo sapiens, UniProt P25103) (assay: In Vitro Human NK1 Receptor Binding Assay ([125I]Bolton-Hunter substance P displacement, IM9 cells)). Settings: Human lymphoma IM9 cells, [125I]Bolton-Hunter substance P; Table 3, array-synthesis products; read-out: IC50 (nM) hNK1.
T1 construct: endogenous in cells; host or cells: Human lymphoma IM9 cells (whole cells)
In short: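 Test compounds competed with 0.05-0.1 nM [125I]Bolton-Hunter substance P for binding to intact IM9 cells over 50 min at 21° C, pH 7.4 buffer with MnCl2 and peptidase inhibitors. […] [Sar9, Met(O2)11] substance P gave non-specific binding. Bound counts were measured after filtration and fitted iteratively.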

T1 sequence (P25103 whole entry): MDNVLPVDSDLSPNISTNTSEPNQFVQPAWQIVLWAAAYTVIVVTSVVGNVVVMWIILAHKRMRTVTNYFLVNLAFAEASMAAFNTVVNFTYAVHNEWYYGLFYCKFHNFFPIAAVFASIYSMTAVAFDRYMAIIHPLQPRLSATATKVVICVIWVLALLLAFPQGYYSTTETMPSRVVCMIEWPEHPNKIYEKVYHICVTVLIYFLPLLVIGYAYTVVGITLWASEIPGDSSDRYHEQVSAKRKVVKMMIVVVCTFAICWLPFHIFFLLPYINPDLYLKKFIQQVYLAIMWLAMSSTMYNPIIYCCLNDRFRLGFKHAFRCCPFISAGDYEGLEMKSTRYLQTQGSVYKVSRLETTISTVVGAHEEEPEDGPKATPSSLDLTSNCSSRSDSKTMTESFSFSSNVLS

Compared with `O=C(NCc1cccc(C(F)(F)F)c1)C(Cc1c[nH]c2ccccc12)NCc1cc2ccccc2o1` (stereo not shown) [Example 228, 2-[(Benzofuran-2-ylmethyl)-amino]-3-(1H-indol-3-yl)-N-(3-trifluoromethyl-benzyl)-propionamide], `O=C(NCc1ccc(C(F)(F)F)cc1)C(Cc1c[nH]c2ccccc12)NCc1cc2ccccc2o1` (stereo not shown) [Example 283, 2-[(Benzofuran-2-ylmethyl)-amino]-3-(1H-indol-3-yl)-N-(4-trifluoromethyl-benzyl)-propionamide] is 5.1-fold higher in IC50: 82 nM for the first, 420 nM for the second. The first is the more potent here.

`COc1ccc(C(C)NC(=O)C(Cc2c[nH]c3ccccc23)NCc2cc3ccccc3o2)cc1` (stereo not shown) [Example 255, 2-[(Benzofuran-2-ylmethyl)-amino]-3-(1H-indol-3-yl)-N-[1-(4-methoxy-phenyl)-ethyl]-propionamide] and `CC(NC(=O)C(Cc1c[nH]c2ccccc12)NCc1cc2ccccc2o1)c1ccc(Cl)cc1` (stereo not shown) [Example 264, 2-[(Benzofuran-2-ylmethyl)-amino]-N-[1(4-chloro-phenyl)-ethyl]-3-(1H-indol-3-yl)-propionamide] are within 1.5-fold of each other in IC50: 9 nM for the first, 7 nM for the second.

First: O=C(NCc1cccc([N+](=O)[O-])c1)C(Cc1c[nH]c2ccccc12)NCc1cc2ccccc2o1 (stereo not shown) [Example 260, 2-[(Benzofuran-2-ylmethyl)-amino]-3-(1H-indol-3-yl)-N-(3-nitro-benzyl)-propionamide]
Second: O=C(NCCc1ccc([N+](=O)[O-])cc1)C(Cc1c[nH]c2ccccc12)NCc1cc2ccccc2o1 (stereo not shown) [Example 281, 2-[(Benzofuran-2-ylmethyl)-amino]-3-(1H-indol-3-yl)-N-[2-(4-nitro-phenyl)-ethyl]-propionamide]
The IC50 of the first is 3.6-fold lower: 14 nM for the first, 51 nM for the second. The first is the more potent here.

First: CC(NC(=O)C(Cc1c[nH]c2ccccc12)NCc1cc2ccccc2o1)c1ccc(N(C)C)cc1 (stereo not shown) [Example 217, 2-[(Benzofuran-2-ylmethyl)-amino]-N-[1-(4-dimethylamino-phenyl)-ethyl]-3-(1H-indol-3-yl)-propionamide]
Second: Cc1ccc(C(C)NC(=O)C(Cc2c[nH]c3ccccc23)NCc2cc3ccccc3o2)s1 (stereo not shown) [Example 208, 2-[(Benzofuran-2-ylmethyl)-amino]-3-(1H-indol-3-yl)-N-[1-(5-methyl-thiophen-2-yl)-ethyl]-propionamide]
The IC50 of the first is 55-fold higher: 819 nM for the first, 15 nM for the second. The second is the more potent here.

First: O=C(NCc1cnc2ccccc2c1)C(Cc1c[nH]c2ccccc12)NCc1cc2ccccc2o1 (stereo not shown) [Example 205, 2-[(Benzofuran-2-ylmethyl)-amino]-3-(1H-indol-3-yl)-N-quinolin-3-ylmethyl-propionamide]
Second: O=C(NCc1ccc(F)c(F)c1)C(Cc1c[nH]c2ccccc12)NCc1cc2ccccc2o1 (stereo not shown) [Example 268, 2-[(Benzofuran-2-ylmethyl)-amino]-N-(3,4-difluoro-benzyl)-3-(1H-indol-3-yl)-propionamide]
The IC50 of the first is 230-fold higher: 2320 nM for the first, 10 nM for the second.

Compared with `O=C(NC1Cc2ccccc2C1)C(Cc1c[nH]c2ccccc12)NCc1cc2ccccc2o1` (stereo not shown) [Example 239, 2-[(Benzofuran-2-ylmethyl)-amino]-N-indan-2-yl-3-(1H-indol-3-yl)-propionamide], `O=C(NCCc1ccco1)C(Cc1c[nH]c2ccccc12)NCc1cc2ccccc2o1` (stereo not shown) [Example 251, 2-[(Benzofuran-2-ylmethyl)-amino]-N-(2-furan-2-yl-ethyl)-3-(1H-indol-3-yl)-propionamide] is 1.9-fold lower in IC50: 243 nM for the first, 129 nM for the second.

Compound `O=C(NCCn1cccc1)C(Cc1c[nH]c2ccccc12)NCc1cc2ccccc2o1` (stereo not shown) [Example 212, 2-[(Benzofuran-2-ylmethyl)-amino]-3-(1H-indol-3-yl)-N-(2-pyrrol-1-yl-ethyl)-propionamide] has an IC50 of 658 nM.

Same assay, conditions: Table 4; [125I]Bolton-Hunter substance P displacement, human IM9 cells; read-out: IC50 (nM) hNK1

Compared with `CC(NC(=O)C(C)(Cc1c[nH]c2ccccc12)NCc1ccc(-c2ccccc2)cc1)c1ccccc1` (stereo not shown) [compound 348, 2-[(Biphenyl-4-ylmethyl)-amino]-3-(1H-indol-3-yl)-2-methyl-N-(1-phenyl-ethyl)-propionamide], `COc1ccc2oc(CNC(C)(Cc3c[nH]c4ccccc34)C(=O)NC(C)c3ccccc3)cc2c1` (stereo not shown) [compound 317, 3-(1H-Indol-3-yl)-2-[(5-methoxy-benzofuran-2-ylmethyl)-amino]-2-methyl-N-(1-phenyl-ethyl)-propionamide] is higher in IC50: 5560 nM for the first, > 10000 nM for the second.

Compared with `CC(NC(=O)C(C)(Cc1c[nH]c2ccccc12)NCCNC(=O)CN1C(=O)c2ccccc2C1=O)c1ccccc1` (stereo not shown) [compound 321, 2-{2-[2-(1,3-Dioxo-1,3-dihydro-isoindol-2-yl)-acetylamino]-ethylamino}-3-(1H-indol-3-yl)-2-methyl-N-(1-phenyl-ethyl)-propionamide], `CC(NC(=O)C(C)(Cc1c[nH]c2ccccc12)NCc1ccc2ccccc2c1)c1ccccc1` (stereo not shown) [compound 309, 3-(1H-Indol-3-yl)-2-methyl-2-[(naphthalen-2-ylmethyl)-amino]-N-(1-phenyl-ethyl)-propionamide] is 18-fold lower in IC50: 3040 nM for the first, 169 nM for the second. The second is the more potent here.

Going from “2-(2,3-Diphenyl-allylamino)-3-(1H-indol-3-yl)-2-methyl-N-(1-phenyl-ethyl)-propionamide [compound 338]” to `CC(NC(=O)C(C)(Cc1c[nH]c2ccccc12)NCc1ccsc1)c1ccccc1` (stereo not shown) [compound 358, 3-(1H-Indol-3-yl)-2-methyl-N-(1-phenyl-ethyl)-2-[(thiophen-3-ylmethyl)-amino]-propionamide], the IC50 falls from > 10000 nM to 598 nM.

Same assay, conditions: Table 5; [125I]Bolton-Hunter substance P displacement, human IM9 cells; read-out: IC50 (nM) hNK1

Compared with `CC(NC(=O)C(Cc1c[nH]c2ccccc12)NCc1ccc2ccccc2c1)c1ccccc1` (stereo not shown) [compound 394], `CC(NC(=O)C(Cc1c[nH]c2ccccc12)NCc1cc(C(F)(F)F)cc(C(F)(F)F)c1)c1ccccc1` (stereo not shown) [compound 398] is higher in IC50: 158 nM for the first, > 10000 nM for the second.

“2-(2,3-Diphenyl-allylamino)-3-(1H-indol-3-yl)-2-methyl-N-(1-phenyl-ethyl)-propionamide [compound 338]” and `CC(NC(=O)C(Cc1c[nH]c2ccccc12)NCc1ccccn1)c1ccccc1` (stereo not shown) [compound 395] cannot be ordered by IC50: > 10000 nM for the first, > 10000 nM for the second.

Same assay, conditions: human NK1 receptor, IM9 cells, [125I]Bolton-Hunter substance P; read-out: IC50 (nM) hNK1

First: CC(NC(=O)C(C)(Cc1c[nH]c2ccccc12)NCc1cc2ccccc2o1)c1ccc(Cl)cc1 (stereo not shown) [compound 30, 2-[(Benzofuran-2-ylmethyl)-amino]-N-[1-(4-chloro-phenyl)-ethyl]-3-(1H-indol-3-yl)-2-methyl-propionamide]
Second: CC(NC(=O)C(C)(Cc1c[nH]c2ccccc12)NCc1cc2ccccc2o1)c1ccc([N+](=O)[O-])cc1 (stereo not shown) [compound 124, 2-[(Benzofuran-2-ylmethyl)-amino]-3-(1H-indol-3-yl)-2-methyl-N-[1-(4-nitro-phenyl)-ethyl]-propionamide]
The IC50 of the first is 5.4-fold lower: 17 nM for the first, 92 nM for the second. The first is the more potent here.

Going from `CC(Cc1c[nH]c2ccccc12)(NCc1cc2ccccc2o1)C(=O)NCc1ccc(C(=O)O)cc1` (stereo not shown) [compound 171, 4-{[2-[(Benzofuran-2-ylmethyl)-amino]-3-(1H-indol-3-yl)-2-methyl-propionylamino]-methyl}-benzoic acid] to `CC(Cc1c[nH]c2ccccc12)(NCc1cc2ccccc2o1)C(=O)NCCc1ccc(N)cc1` (stereo not shown) [compound 56, N-[2-(4-Amino-phenyl)-ethyl]-2-[(benzofuran-2-ylmethyl)-amino]-3-(1H-indol-3-yl)-2-methyl-propionamide], the IC50 falls from > 10000 nM to 3230 nM.

`Cc1[nH]cnc1CCNC(=O)C(C)(Cc1c[nH]c2ccccc12)NCc1cc2ccccc2o1` (stereo not shown) [compound 101, 2-[(Benzofuran-2-ylmethyl)-amino]-3-(1H-indol-3-yl)-2-methyl-N-[2-(5-methyl-1H-imidazol-4-yl)-ethyl]-propionamide] and `CC(Cc1c[nH]c2ccccc12)(NCc1cc2ccccc2o1)C(=O)NCCN1CCOC1=O` (stereo not shown) [compound 96, 2-[(Benzofuran-2-ylmethyl)-amino]-3-(1H-indol-3-yl)-2-methyl-N-[2-(2-oxo-oxazolidin-3-yl)-ethyl]-propionamide] cannot be ordered by IC50: > 10000 nM for the first, > 10000 nM for the second.

Going from `CC(Cc1c[nH]c2ccccc12)(NCc1cc2ccccc2o1)C(=O)NCc1ccc2c(c1)OCO2` (stereo not shown) [compound 174, N-Benzo[1,3]dioxol-5-ylmethyl-2-[(benzofuran-2-ylmethyl)-amino]-3-(1H-indol-3-yl)-2-methyl-propionamide] to `CC(Cc1c[nH]c2ccccc12)(NCc1cc2ccccc2o1)C(=O)NCc1c(N)cccc1F` (stereo not shown) [compound 48, N-(2-Amino-6-fluoro-benzyl)-2-[(benzofuran-2-ylmethyl)-amino]-3-(1H-indol-3-yl)-2-methyl-propionamide], the IC50 rises from 94 nM to 6420 nM (68-fold).

Compared with `CC(Cc1c[nH]c2ccccc12)(NCc1cc2ccccc2o1)C(=O)NC1CC1c1ccccc1` (stereo not shown) [compound 107, 2-[(Benzofuran-2-ylmethyl)-amino]-3-(1H-indol-3-yl)-2-methyl-N-(2-phenyl-cyclopropyl)-propionamide], `CC(Cc1c[nH]c2ccccc12)(NCc1cc2ccccc2o1)C(=O)NC1CCc2ccccc21` (stereo not shown) [compound 158, 2-[(Benzofuran-2-ylmethyl)-amino]-N-indan-1-yl-3-(1H-indol-3-yl)-2-methyl-propionamide] is 1.6-fold lower in IC50: 4150 nM for the first, 2570 nM for the second.

First: CC(Cc1c[nH]c2ccccc12)(NCc1cc2ccccc2o1)C(=O)NCc1ccc([N+](=O)[O-])o1 (stereo not shown) [compound 100, 2-[(Benzofuran-2-ylmethyl)-amino]-3-(1H-indol-3-yl)-2-methyl-N-(5-nitro-furan-2-ylmethyl)-propionamide]
Second: CC(Cc1c[nH]c2ccccc12)(NCc1cc2ccccc2o1)C(=O)NCC(O)c1ccccc1 (stereo not shown) [compound 50, 2-[(Benzofuran-2-ylmethyl)-amino]-N-(2-hydroxy-2-phenyl-ethyl)-3-(1H-indol-3-yl)-2-methyl-propionamide]
The IC50 of the first is 3.4-fold lower: 390 nM for the first, 1330 nM for the second. The first is the more potent here.

Going from `CC(Cc1c[nH]c2ccccc12)(NCc1cc2ccccc2o1)C(=O)NCCCN1CCOCC1` (stereo not shown) [compound 185, 2-[(Benzofuran-2-ylmethyl)-amino]-3-(1H-indol-3-yl)-2-methyl-N-(3-morpholin-4-yl-propyl)-propionamide] to `CC(Cc1c[nH]c2ccccc12)(NCc1cc2ccccc2o1)C(=O)NC1NC(=O)c2ccccc21` (stereo not shown) [compound 85], the IC50 falls from > 10000 nM to 2440 nM.
